In PubChem BioAssay AID248 (DTP/NCI, 2004):
Where “and” joins values, the source holds several entries; their conditions need not be identical. Equal values may be shown once. Inconclusive results and toxic doses are left out. Cut-off read from the data, not from the text of the source: active = T/C of 150% or more; inactive = T/C below 125%.

Tested on: L1210 leukemia ip in BDF1 mice, survival T/C
Assay: NCI In Vivo Anticancer Drug Screen. Data for tumor model L1210 Leukemia (intraperitoneal) in B6D2F1 (BDF1) mice
Settings: endpoint: mean survival time, higher = longer survival
Method in brief: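 Ratio derived from survival: compound-dosed mice over vehicle-dosed mice, all bearing a transplantable tumor.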

[1] = dose: 100.0 mg/kg/injection, schedule: Q04DX003 (ip), vehicle: saline with Tween-80
[2] = dose: 200.0 mg/kg/injection, schedule: Q04DX003 (ip), vehicle: saline with Tween-80
[3] = dose: 100.0 mg/kg/injection, schedule: Q04DX003 (ip), vehicle: saline
[4] = dose: 200.0 mg/kg/injection, schedule: Q04DX003 (ip), vehicle: saline
[5] = dose: 100.0 mg/kg/injection, schedule: Q01DX001 (ip), vehicle: saline
[6] = dose: 200.0 mg/kg/injection, schedule: Q01DX001 (ip), vehicle: saline
[7] = dose: 400.0 mg/kg/injection, schedule: Q01DX001 (ip), vehicle: saline
[8] = dose: 100.0 mg/kg/injection, schedule: Q01DX001 (ip), vehicle: carboxymethylcellulose (CMC)
[9] = dose: 200.0 mg/kg/injection, schedule: Q01DX001 (ip), vehicle: carboxymethylcellulose (CMC)
[10] = dose: 400.0 mg/kg/injection, schedule: Q01DX001 (ip), vehicle: carboxymethylcellulose (CMC)
[11] = dose: 100.0 mg/kg/injection, schedule: Q01DX009 (ip), vehicle: Klucel (hydroxypropylcellulose) (HPC)
[12] = dose: 200.0 mg/kg/injection, schedule: Q01DX009 (ip), vehicle: Klucel (hydroxypropylcellulose) (HPC)
[13] = dose: 400.0 mg/kg/injection, schedule: Q01DX009 (ip), vehicle: Klucel (hydroxypropylcellulose) (HPC)
[14] = dose: 100.0 mg/kg/injection, schedule: Q01DX009 (ip), vehicle: saline
[15] = dose: 400.0 mg/kg/injection, schedule: Q04DX003 (ip), vehicle: saline
[16] = dose: 100.0 mg/kg/injection, schedule: Q04DX003 (ip), vehicle: Klucel (hydroxypropylcellulose) (HPC)
[17] = dose: 200.0 mg/kg/injection, schedule: Q04DX003 (ip), vehicle: Klucel (hydroxypropylcellulose) (HPC)
[18] = dose: 400.0 mg/kg/injection, schedule: Q04DX003 (ip), vehicle: Klucel (hydroxypropylcellulose) (HPC)
[19] = dose: 100.0 mg/kg/injection, schedule: Q04DX002 (ip), vehicle: saline with Tween-80
[20] = dose: 200.0 mg/kg/injection, schedule: Q04DX002 (ip), vehicle: saline with Tween-80
[21] = dose: 400.0 mg/kg/injection, schedule: Q04DX002 (ip), vehicle: saline with Tween-80
[22] = dose: 50.0 mg/kg/injection, schedule: Q01DX009 (ip), vehicle: Klucel (hydroxypropylcellulose) (HPC)

Measured: T/C

CC(NC1=NCCO1)c1cccc2ccccc12 (stereo not given)
inactive: dose: 25.0 mg/kg/injection, schedule: Q01DX009 (ip), vehicle: saline with Tween-80 94 % of control | dose: 50.0 mg/kg/injection, schedule: Q01DX009 (ip), vehicle: saline with Tween-80 94 % of control | [1] 96 % of control | [2] 94 % of control | dose: 400.0 mg/kg/injection, schedule: Q04DX003 (ip), vehicle: saline with Tween-80 89 % of control

Nc1ccc(CCc2ccccc2)c(C(=O)O)c1
inactive: dose: 50.0 mg/kg/injection, schedule: Q04DX003 (ip), vehicle: saline 104 % of control | [3] 110 % of control | [4] 96 % of control

Cc1ccon1
inactive: [5] 102 % of control | [6] 100 % of control | [7] 96 % of control

C=C(CCCCCC/C=C\CCCCCCCC)C(=O)O
inactive: dose: 100.0 mg/kg/injection, schedule: Q04DX002 (sc), vehicle: olive oil, sesame oil, peanut oil 103 % of control | dose: 200.0 mg/kg/injection, schedule: Q04DX002 (sc), vehicle: olive oil, sesame oil, peanut oil 103 % of control | dose: 400.0 mg/kg/injection, schedule: Q04DX002 (sc), vehicle: olive oil, sesame oil, peanut oil 103 % of control

Oc1ccccc1C(=NNc1ccccc1)c1ccccc1O
inactive: [8] 115 % of control | [9] 105 % of control | [10] 103 % of control

C=C(Cl)COC(=S)S
inactive: [5] 107 % of control | [6] 103 % of control | [7] 100 % of control

CCCCN(CCCC)C(=S)S[As](SC(=S)N(CCCC)CCCC)SC(=S)N(CCCC)CCCC
inactive: [11] 97 % of control | [12] 90 % of control | [13] 97 % of control

O=c1[nH]cc(/C=N/O)c(=O)[nH]1
inactive: [8] 106 % of control | [9] 106 % of control | [10] 101 % of control

CCOC1(C(=O)O)CC(c2ccc(Cl)cc2)Nc2c(OC)ccc(OC)c21 (stereo not given)
inactive: [1] 98 % of control | [2] 93 % of control

COC(=O)C1CN=NC1C(=O)OC (stereo not given)
inactive: dose: 100.0 mg/kg/injection, schedule: Q04DX003 (ip), vehicle: acetone 98 % of control | dose: 200.0 mg/kg/injection, schedule: Q04DX003 (ip), vehicle: acetone 96 % of control | dose: 400.0 mg/kg/injection, schedule: Q04DX003 (ip), vehicle: acetone 101 % of control

ClC12CCC(Cl)(CC1)C2(Cl)Cl
inactive: dose: 25.0 mg/kg/injection, schedule: Q01DX009 (ip), vehicle: saline 95 % of control | dose: 50.0 mg/kg/injection, schedule: Q01DX009 (ip), vehicle: saline 103 % of control | [14] 96 % of control | [3] 98 % of control | [4] 95 % of control | [15] 98 % of control

O=C1c2ccccc2C(=O)c2c(Cl)ccc(O)c21
inactive: [11] 98 % of control | [16] 97 % of control | [12] 105 % of control | [17] 97 % of control | [13] 101 % of control | [18] 96 % of control

CC(=O)Nc1cccc(Cl)c1C
inactive: dose: 100.0 mg/kg/injection, schedule: Q01DX009 (ip), vehicle: saline sonified 97 % of control | dose: 100.0 mg/kg/injection, schedule: Q04DX003 (ip), vehicle: saline sonified 95 % of control | dose: 200.0 mg/kg/injection, schedule: Q01DX009 (ip), vehicle: saline sonified 91 % of control | dose: 200.0 mg/kg/injection, schedule: Q04DX003 (ip), vehicle: saline sonified 95 % of control | dose: 400.0 mg/kg/injection, schedule: Q01DX009 (ip), vehicle: saline sonified 91 % of control | dose: 400.0 mg/kg/injection, schedule: Q04DX003 (ip), vehicle: saline sonified 97 % of control

CN1C2CC(=O)CC1C(O)C2 (stereo not given)
inactive: [5] 103 % of control | [7] 90 % of control

Cc1nc2nc(N)[nH]c(=O)c2[nH]c1=O
inactive: [14] 89 % of control | [3] 100 % of control | dose: 200.0 mg/kg/injection, schedule: Q01DX009 (ip), vehicle: saline 88 % of control | [4] 96 % of control | [15] 96 % of control

O=C(CCCCC(=O)NO)NO
inactive: [19] 110 % of control | dose: 100.0 mg/kg/injection, schedule: Q04DX002 (ip), vehicle: saline 103 % of control | [20] 110 % of control | dose: 200.0 mg/kg/injection, schedule: Q04DX002 (ip), vehicle: saline 90 % of control | [21] 107 % of control | dose: 400.0 mg/kg/injection, schedule: Q04DX002 (ip), vehicle: saline 107 % of control

CC(=O)C1CCC=C2C1CC1CC2C1(C)C (stereo not given)
inactive: [11] 106 % of control | [16] 92 % of control | [12] 100 % of control | [17] 87 % of control | [13] 101 % of control | [18] 90 % of control

CCc1cccc(CC)c1N=Cc1ccccc1O
inactive: dose: 100.0 mg/kg/injection, schedule: Q01DX009 (ip), vehicle: carboxymethylcellulose (CMC) 98 % of control and 102 % of control | dose: 100.0 mg/kg/injection, schedule: Q04DX002 (ip), vehicle: carboxymethylcellulose (CMC) 93 % of control and 101 % of control | dose: 100.0 mg/kg/injection, schedule: Q04DX003 (ip), vehicle: carboxymethylcellulose (CMC) 98 % of control | dose: 200.0 mg/kg/injection, schedule: Q01DX009 (ip), vehicle: carboxymethylcellulose (CMC) 93 % of control and 98 % of control | dose: 200.0 mg/kg/injection, schedule: Q04DX002 (ip), vehicle: carboxymethylcellulose (CMC) 96 % of control and 102 % of control | dose: 200.0 mg/kg/injection, schedule: Q04DX003 (ip), vehicle: carboxymethylcellulose (CMC) 102 % of control | dose: 400.0 mg/kg/injection, schedule: Q01DX009 (ip), vehicle: carboxymethylcellulose (CMC) 95 % of control | dose: 400.0 mg/kg/injection, schedule: Q04DX002 (ip), vehicle: carboxymethylcellulose (CMC) 93 % of control and 96 % of control | dose: 400.0 mg/kg/injection, schedule: Q04DX003 (ip), vehicle: carboxymethylcellulose (CMC) 104 % of control

O=c1s[se]c2ccccc12
inactive: dose: 1.56 mg/kg/injection, schedule: Q01DX009 (ip), vehicle: Klucel (hydroxypropylcellulose) (HPC) 100 % of control | dose: 3.12 mg/kg/injection, schedule: Q01DX009 (ip), vehicle: Klucel (hydroxypropylcellulose) (HPC) 100 % of control | dose: 6.25 mg/kg/injection, schedule: Q01DX009 (ip), vehicle: Klucel (hydroxypropylcellulose) (HPC) 107 % of control | dose: 12.5 mg/kg/injection, schedule: Q01DX009 (ip), vehicle: Klucel (hydroxypropylcellulose) (HPC) 111 % of control | dose: 25.0 mg/kg/injection, schedule: Q01DX009 (ip), vehicle: Klucel (hydroxypropylcellulose) (HPC) 102 % of control | [22] 91 % of control

O=C(Nc1ccc(Cl)c(Cl)c1)O/N=C\c1c(Cl)ccc([N+](=O)[O-])c1Cl
inactive: [5] 102 % of control | [6] 107 % of control | [7] 102 % of control

N#C/C(=C/c1cc(Cl)ccc1O)C(N)=O
inactive: [11] 102 % of control | [12] 95 % of control | [13] 100 % of control

Nc1cc(NC(=O)c2ccc(Cl)cc2)ccc1S(=O)(=O)O
inactive: [19] 104 % of control | [20] 93 % of control | [21] 93 % of control

CCCCOc1ccc(OC(=O)Nc2cc(C)ccc2C)cc1
inactive: [11] 91 % of control | [16] 108 % of control | [12] 96 % of control | [17] 95 % of control | [13] 98 % of control | [18] 90 % of control

Cc1ccc(CC(=S)N2CCOCC2)cc1
inactive: dose: 100.0 mg/kg/injection, schedule: Q01DX001 (ip), vehicle: steriod suspending solution 95 % of control | dose: 200.0 mg/kg/injection, schedule: Q01DX001 (ip), vehicle: steriod suspending solution 98 % of control | dose: 400.0 mg/kg/injection, schedule: Q01DX001 (ip), vehicle: steriod suspending solution 96 % of control

CCOC(=O)C(C(=O)OCC)C(=O)c1cc(-c2ccc(Cl)c(Cl)c2)nc2c(Cl)cc(Cl)cc12
inactive: [22] 98 % of control | [11] 104 % of control | [16] 101 % of control | [17] 109 % of control
